Test results as given in US11274101B2, “Heterocyclic compound” (Takeda Pharmaceutical Company Limited, priority 2017, dated 2022).

Target: T1, His-hMAGL (recombinant polyhistidine tagged human MAGL protein) (Homo sapiens, UniProt Q99685)
T1 construct: made in house; host or cells: E. coli BL21(DE3)
T1 sequence (Q99685 1-303): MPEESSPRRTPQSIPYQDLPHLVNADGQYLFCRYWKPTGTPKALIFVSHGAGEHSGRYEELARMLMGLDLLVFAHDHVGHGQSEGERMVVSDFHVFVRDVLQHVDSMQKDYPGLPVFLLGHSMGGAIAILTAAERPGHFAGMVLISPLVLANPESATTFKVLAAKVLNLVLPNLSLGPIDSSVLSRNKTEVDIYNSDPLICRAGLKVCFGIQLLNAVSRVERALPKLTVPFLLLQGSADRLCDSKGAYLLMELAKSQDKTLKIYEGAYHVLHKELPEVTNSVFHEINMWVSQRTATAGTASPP
Experiment: Measurement of MAGL inhibitory activity (arachidonic acid production from 2-arachidonylglycerol, RapidFire-mass spectrometry)
Assay type: biochemical
Conditions: test compound 10 μM; MAGL inhibitory rate
Method: The His-hMAGL obtained above was diluted with enzyme reaction buffer (10 mM Tris-HCl, pH 7.5, 1 mM EDTA, 0.025 (w/v) % Triton X-100, 0.01% Bovine serum albumin) to a concentration of 7.5 ng/mL. To each well of a 384 well assay plate (Greiner 781280) was added a solution (5 μL) of a test compound dissolved in dimethyl sulfoxide (DMSO), which was diluted with the above-mentioned enzyme reaction buffer, then His-hMAGL solution (5 μL) diluted to a concentration of 7.5 ng/mL was added, and the mixture was incubated at room temperature for 60 min. Thereafter, to each well was added 5 μL of 150 μM 2-arachidonylglycerol (Tocris Bioscience), and the mixture was incubated at room temperature for 10 min. Then, 10 μL of 2% formic acid (Wako Pure Chemical Industries, Ltd.) was added to stop the reaction. Furthermore, acetonitrile (50 μL) containing 3 μM arachidonic acid-d8 (Cayman Chemical Company) was added and the mixture was stirred.
The amount of arachidonic acid in the obtained enzyme reaction mixture was calculated by measuring by RapidFire-mass spectrometry and correcting by the amount of arachidonic acid-d8. High Throughput online solid phase extraction was performed using RapidFire 300™ system (Agilent Technologies, Inc.). Samples were loaded on SPE C4 cartridge (Agilent Technologies, Inc.) and desalted with 0.2 (v/v) % acetic acid (Wako Pure Chemical Industries, Ltd.) in ultrapure water/acetonitrile (70/30, v/v) at a flow rate of 1.5 mL/min, eluted at a flow rate of 0.5 mL/min with 0.2 (v/v) % acetic acid dissolved in acetonitrile/ultrapure water (90/10, v/v), and injected into the mass spectrometry part. The injection needle was washed with ultrapure water (500 millisecond) and acetonitrile (500 millisecond) to minimize carry-over. The suction time (injection loop 5 μL), load/cleansing time, elution time and re-equilibration time were adjusted to 300, 3000, 4250 and 1000 milliseconds, respectively, and the total cycle time was adjusted to about 10.0 seconds. The RapidFire300 system was controlled by RapidFire UI software version 3.6 (Agilent Technologies, Inc.).
The mass spectrometry of the resultant product was performed using API4000™ triple quadrupole mass spectrometer (AB SCIEX) equipped with an electrospray ion sauce (TurboIon Spray™) in a negative selected reaction monitoring (SRM) mode. The conditions of SRM are shown below. The parameters of the instrument were optimized as follows: capillary temperature 600° C., ion spray voltage −4.5 kV, collision gas 8, curtain gas 15 psi, ion source gas 1 60 psi, ion source gas 2 60 psi. The mass spectrometer was controlled by Analyst™ software version 1.5.1 (AB SCIEX). The peak area integration was analyzed using RapidFire integrator software version 3.6 (Agilent Technologies, Inc.).
MAGL inhibitory rate (%) was calculated according to the following calculation formula. (1-(arachidonic acid production amount of test compound addition group−arachidonic acid production amount of enzyme-free group)+(arachidonic acid production amount of test compound-free group−arachidonic acid production amount of enzyme-free group))×100

| SMILES | inhibition at 10 µM [%] |
| --- | --- |
| O=C1NC2(CO1)CN(C(=O)O[C@H]1C[C@@H](COc3ccc(Cl)cc3F)C1)C2 [Example 15, cis-3-((4-chloro-2-fluorophenoxy)methyl)cyclobutyl 6-oxo-7-oxa-2,5-diazaspiro[3.4]octane-2-carboxylate] | 103 |
| O=C1NC2(CO1)CN(C(=O)O[C@H]1C[C@@H](COc3cc(F)c(F)cc3F)C1)C2 [Example 17, cis-3-((2,4,5-trifluorophenoxy)methyl)cyclobutyl 6-oxo-7-oxa-2,5-diazaspiro[3.4]octane-2-carboxylate] | 101 |
| O=C1NC2(CO1)CN(C(=O)O[C@H]1C[C@@H](COc3ccc(C(F)(F)F)cc3F)C1)C2 [Example 19, cis-3-((2-fluoro-4-(trifluoromethyl)phenoxy)methyl)cyclobutyl 6-oxo-7-oxa-2,5-diazaspiro[3.4]octane-2-carboxylate] | 98 |
| O=C1NC2(CO1)CN(C(=O)O[C@H]1C[C@@H](COc3ccc(C(F)(F)F)cc3Cl)C1)C2 [Example 20, cis-3-((2-chloro-4-(trifluoromethyl)phenoxy)methyl)cyclobutyl 6-oxo-7-oxa-2,5-diazaspiro[3.4]octane-2-carboxylate] | 100 |
| O=C1NC2(CO1)CN(C(=O)O[C@H]1C[C@H](COc3ccc(F)c(F)c3F)C1)C2 [Example 21, trans-3-((2,3,4-trifluorophenoxy)methyl)cyclobutyl 6-oxo-7-oxa-2,5-diazaspiro[3.4]octane-2-carboxylate] | 100 |
| O=C1NC2(CO1)CN(C(=O)O[C@H]1C[C@H](COc3ccc(C(F)(F)F)cc3F)C1)C2 [Example 22, trans-3-((2-fluoro-4-(trifluoromethyl)phenoxy)methyl)cyclobutyl 6-oxo-7-oxa-2,5-diazaspiro[3.4]octane-2-carboxylate] | 103 |
| O=C1NC2(CO1)CN(C(=O)OC[C@H]1C[C@@H](Oc3c(F)cc(F)cc3F)C1)C2 [Example 23, (cis-3-(2,4,6-trifluorophenoxy)cyclobutyl)methyl 6-oxo-7-oxa-2,5-diazaspiro[3.4]octane-2-carboxylate] | 100 |
| O=C1NC2(CO1)CN(C(=O)OC[C@H]1C[C@@H](Oc3ccc(C(F)(F)F)cc3F)C1)C2 [Example 24, (cis-3-(2-fluoro-4-(trifluoromethyl)phenoxy)cyclobutyl)methyl 6-oxo-7-oxa-2,5-diazaspiro[3.4]octane-2-carboxylate] | 103 |
| O=C1NC2(CO1)CN(C(=O)OC[C@H]1C[C@H](Oc3c(F)cc(F)cc3F)C1)C2 [Example 25, (trans-3-(2,4,6-trifluorophenoxy)cyclobutyl)methyl 6-oxo-7-oxa-2,5-diazaspiro[3.4]octane-2-carboxylate] | 100 |
| O=C1NC2(CO1)CN(C(=O)OC[C@H]1C[C@@H](Oc3ccc(C(F)(F)F)cc3Cl)C1)C2 [Example 26, (cis-3-(2-chloro-4-(trifluoromethyl)phenoxy)cyclobutyl)methyl 6-oxo-7-oxa-2,5-diazaspiro[3.4]octane-2-carboxylate] | 100 |
| O=C1NC2(CO1)CN(C(=O)OC[C@H]1C[C@H](Oc3ccc(C(F)(F)F)cc3Cl)C1)C2 [Example 27, (trans-3-(2-chloro-4-(trifluoromethyl)phenoxy)cyclobutyl)methyl 6-oxo-7-oxa-2,5-diazaspiro[3.4]octane-2-carboxylate] | 100 |
| Cc1ccc(COC[C@H]2C[C@@H](OC(=O)N3CC4(COC(=O)N4)C3)C2)cc1Cl [Example 28, cis-3-(((3-chloro-4-methylbenzyl)oxy)methyl)cyclobutyl 6-oxo-7-oxa-2,5-diazaspiro[3.4]octane-2-carboxylate] | 100 |
| Cc1cc(COC[C@H]2C[C@@H](OC(=O)N3CC4(COC(=O)N4)C3)C2)ccc1Cl [Example 29, cis-3-(((4-chloro-3-methylbenzyl)oxy)methyl)cyclobutyl 6-oxo-7-oxa-2,5-diazaspiro [3.4]octane-2-carboxylate] | 100 |
| O=C1NC2(CO1)CN(C(=O)O[C@H]1C[C@@H](COCc3ccc(F)cc3Cl)C1)C2 [Example 30, cis-3-(((2-chloro-4-fluorobenzyl)oxy)methyl)cyclobutyl 6-oxo-7-oxa-2,5-diazaspiro[3.4]octane-2-carboxylate] | 100 |
| O=C1NC2(CO1)CN(C(=O)O[C@H]1C[C@@H](COCc3ccc(F)c(F)c3F)C1)C2 [Example 31, cis-3-(((2,3,4-trifluorobenzyl)oxy)methyl)cyclobutyl 6-oxo-7-oxa-2,5-diazaspiro[3.4]octane-2-carboxylate] | 100 |
| O=C1NC2(CO1)CN(C(=O)O[C@H]1C[C@@H](COCc3cc(F)c(F)cc3F)C1)C2 [Example 32, cis-3-(((2,4,5-trifluorobenzyl)oxy)methyl)cyclobutyl 6-oxo-7-oxa-2,5-diazaspiro [3.4]octane-2-carboxylate] | 100 |
| O=C1NC2(CO1)CN(C(=O)O[C@H]1C[C@@H](COCc3c(F)cc(F)cc3F)C1)C2 [Example 33, cis-3-(((2,4,6-trifluorobenzyl)oxy)methyl)cyclobutyl 6-oxo-7-oxa-2,5-diazaspiro[3.4]octane-2-carboxylate] | 101 |
| O=C1NC2(CO1)CN(C(=O)O[C@H]1C[C@H](Oc3ccc(C(F)(F)F)cc3F)C1)C2 [Example 34, trans-3-(2-fluoro-4-(trifluoromethyl)phenoxy)cyclobutyl 6-oxo-7-oxa-2,5-diazaspiro[3.4]octane-2-carboxylate] | 99 |
| O=C1NC2(CCN(C(=O)O[C@H]3C[C@@H](COc4ccc(F)c(F)c4F)C3)C2)CO1 (stereo partly drawn) [Example 35, cis-3-((2,3,4-trifluorophenoxy)methyl)cyclobutyl 2-oxo-3-oxa-1,7-diazaspiro[4.4]nonane-7-carboxylate] | 100 |
| O=C1NC2(CO1)CN(C(=O)O[C@H]1C[C@@H](COCc3ccc(C(F)(F)F)cc3F)C1)C2 [Example 36, cis-3-(((2-fluoro-4-(trifluoromethyl)benzyl)oxy)methyl)cyclobutyl 6-oxo-7-oxa-2,5-diazaspiro[3.4]octane-2-carboxylate] | 100 |
| O=C1NC2(CO1)CN(C(=O)O[C@H]1CC[C@H](Oc3ccc(C(F)(F)F)cc3F)CC1)C2 [Example 37, trans-4-(2-fluoro-4-(trifluoromethyl)phenoxy)cyclohexyl 6-oxo-7-oxa-2,5-diazaspiro[3.4]octane-2-carboxylate] | 101 |
| O=C1NC2(CO1)CN(C(=O)O[C@H]1CC[C@@H](Oc3ccc(C(F)(F)F)cc3F)CC1)C2 [Example 38, cis-4-(2-fluoro-4-(trifluoromethyl)phenoxy)cyclohexyl 6-oxo-7-oxa-2,5-diazaspiro[3.4]octane-2-carboxylate] | 102 |
| O=C1NC2(CO1)CN(C(=O)O[C@H]1C[C@H](Oc3ccc(F)c(F)c3F)C1)C2 [Example 39, trans-3-(2,3,4-trifluorophenoxy)cyclobutyl 6-oxo-7-oxa-2,5-diazaspiro[3.4]octane-2-carboxylate] | 100 |
| O=C1NC2(CO1)CN(C(=O)O[C@H]1C[C@@H](OCc3ccc(F)cc3F)C1)C2 [Example 40, cis-3-((2,4-difluorobenzyl)oxy)cyclobutyl 6-oxo-7-oxa-2,5-diazaspiro[3.4]octane-2-carboxylate] | 100 |
| O=C1NC2(CO1)CN(C(=O)O[C@H]1C[C@@H](OCc3ccc(F)c(F)c3)C1)C2 [Example 41, cis-3-((3,4-difluorobenzyl)oxy)cyclobutyl 6-oxo-7-oxa-2,5-diazaspiro[3.4]octane-2-carboxylate] | 99 |
